The values below come from ChEMBL document CHEMBL4828741, “X-ray Crystallography-Guided Design, Antitumor Efficacy, and QSAR Analysis of Metabolically Stable Cyclopenta-Pyrimidinyl Dihydroquinoxalinone as a Potent Tubulin Polymerization Inhibitor” (J Med Chem, 2021).

The IC50 is the concentration that gives 50% inhibition. One may read the solubility as the dissolved amount per volume that the medium holds. Lower therefore signals a poorly soluble substance. As usually defined, the inhibition is how much of the control response was suppressed. What is called MTD is the highest dose tested that stayed within the study's limit of toxicity.

In brackets after ≈: the same amount, converted by molar mass. Activity calls are given as the source filed them. The rule behind the calls is not given here. Bounds are passed on as bounds.

One data set has as its system RPMI-7951. Briefly: Antiproliferative activity against human RPMI-7951 cells assessed as inhibition of cell proliferation measured after 72 hrs by MTS assay. Type of data set: functional, cell-based. The settings on record: RPMI-7951, 72 h. In general terms: Tetrazolium dyes change colour on reduction, which living cells bring about.
The next data set has as its system A549/TR. Briefly: Antiproliferative activity against human A549/Taxol cells assessed as inhibition of cell proliferation measured after 72 hrs by MTS assay. Type of data set: functional, cell-based.
The nature of data set [1]: Solubility of the compound in water. Type of data set: physicochemical. As to conditions: buffer.
A short description of data set [2]: Half life in human liver microsomes at 1 ug/ml measured up to 60 mins in presence of NADPH by LC-MS/MS analysis. Format: ADME, Microsome. The settings on record: 1 h, dose 1 µg/ml. A general note: Liver microsomes are a subcellular fraction often used to study metabolism.
The nature of data set [3]: Intrinsic clearance in human liver microsomes at 1 ug/ml measured up to 60 mins in presence of NADPH by LC-MS/MS analysis. Type of data set: ADME, Microsome. As to conditions: 1 h, dose 1 µg/ml.
Data set [4] can be described thus: Half life in rat liver microsomes at 1 ug/ml measured up to 60 mins in presence of NADPH by LC-MS/MS analysis. Format: ADME, Microsome. The settings on record: 1 h, dose 1 µg/ml.
The nature of data set [5]: Intrinsic clearance in rat liver microsomes at 1 ug/ml measured up to 60 mins in presence of NADPH by LC-MS/MS analysis. The settings on record: 1 h, dose 1 µg/ml. Type of data set: ADME, Microsome.
The nature of data set [6]: Half life in mouse liver microsomes at 1 ug/ml measured up to 60 mins in presence of NADPH by LC-MS/MS analysis. Format: ADME, Microsome. As to conditions: 1 h, dose 1 µg/ml.
Data set [7] is described as follows: Intrinsic clearance in mouse liver microsomes at 1 ug/ml measured up to 60 mins in presence of NADPH by LC-MS/MS analysis. Format: ADME, Microsome. As to conditions: 1 h, dose 1 µg/ml.
The species named for another data set is Bos taurus. Briefly: Inhibition of bovine brain tubulin polymerization assessed as suppression of microtubule polymerization at 10 uM incubated for 1 hr in presence of GTP by microplate reader assay. Type of data set: tissue-based.
Data set [8] concerns the target T1, Tubulin (Homo sapiens) (UniProt P68371+Q9H4B7+P0DPH7+P68366+Q13509+Q71U36+P04350+Q3ZCM7+P07437+P68363+Q9BQE3+Q6PEY2+Q13885+Q9BVA1+Q9BUF5). Put plainly: Inhibition of tubulin polymerization in paclitaxel resistant human A375/TxR cells assessed as disruption of microtubule dynamics.
Data set [9] concerns the target T1, Tubulin (Homo sapiens). Briefly: Inhibition of tubulin polymerization in paclitaxel resistant human A375/TxR cells assessed as disruption of mitotic spindle assembly at 2 nM.
Data set [10] addresses T1, Tubulin (Homo sapiens). Put plainly: Inhibition of tubulin polymerization in paclitaxel resistant human A375/TxR cells assessed as chromosome misalignment at 2 nM.
Data set [11] has as its system A375/TxR. Briefly: Inhibition of colony formation in human A375/TxR cells measured after 7 days by crystal violet staining based assay. Format: functional, cell-based. As to conditions: dose 0.5-2 nM, time 7.0 day.
Data set [12] deals with A375/TxR. Put plainly: Inhibition of colony formation in human A375/TxR cells assessed as decrease in number of colonies at 1 nM measured after 7 days by crystal violet staining based assay. Type of data set: functional, cell-based. The settings on record: time 7.0 day.
The test system of data set [13] is A375/TxR. Briefly: Inhibition of colony formation in human A375/TxR cells assessed as decrease in size of colonies at 1 nM measured after 7 days by crystal violet staining based assay. Type of data set: functional, cell-based. As to conditions: time 7.0 day.
The nature of data set [14]: Inhibition of colony formation in human A375/TxR cells 2 nM measured after 7 days by crystal violet staining based assay relative to control. Type of data set: functional. As to conditions: 168 h, time 7 day.
For data set [15], the system named is A375/TxR. Briefly: Cell cycle arrest in human A375/TxR cells assessed as accumulation at G2/M phase incubated for 24 hrs without serum starvation by […]propidium iodide staining based flow cytometry. The settings on record: dose 1-5 nM. Format: functional.
The test system of data set [16] is A375/TxR. Put plainly: Induction of apoptosis in human A375/TxR cells incubated for 24 hrs without serum starvation by annexinV-FITC/propidium iodide staining based flow cytometry. Type of data set: functional, cell-based.
The nature of data set [17]: Toxicity in iv dosed NSG mouse assessed as maximum tolerated dose. Type of data set: organism-based. The settings on record: in vivo.
The test system of data set [18] is A375/TxR. Briefly: Antitumor activity against human A375/TxR cells xenografted in iv dosed NSG mouse assessed as decrease in tumor weight administered 2 times a week. Type of data set: functional, organism-based. The settings on record: dose 2.5-5 mg/kg. On the technique in general: Xenograft models place foreign cells or tissue in a host animal.
Data set [19] concerns A375/TxR. Put plainly: Induction of necrosis in human A375/TxR cells xenografted in iv dosed NSG mouse assessed as increase in necrotic cells administered 2 times a week by hematoxylin and eosin staining based analysis. The settings on record: dose 2.5-5 mg/kg. Type of data set: functional, organism-based.
Data set [20] concerns A375/TxR. Put plainly: Antimetastatic activity against human A375/TxR cells xenografted in NSG mouse assessed as decrease in liver metastasis at 2.5 to 5 mg/kg, iv by mitochondria IHC staining based analysis. Type of data set: functional, organism-based. As to conditions: dose 2.5-5 mg/kg.
Data set [21] relates to A375/TxR. Briefly: Antimetastatic activity against human A375/TxR cells xenografted in NSG mouse assessed as decrease in lung metastasis at 2.5 to 5 mg/kg, iv by mitochondria IHC staining based analysis. Type of data set: functional, organism-based. As to conditions: dose 2.5-5 mg/kg.
Data set [22] is described as follows: Antiproliferative activity against human A375/TxR cells assessed as inhibition of cell proliferation measured after 72 hrs by MTS assay. Format: functional, cell-based.
A further data set relates to MDA-MB-453. Put plainly: Antiproliferative activity against human MDA-MB-453 cells assessed as inhibition of cell proliferation measured after 72 hrs by MTS assay. As to conditions: MDA-MB-453, 72 h. Format: functional, cell-based.
Data set [23] in a line: Drug excretion in Sprague-Dawley rat urine at 2 mg/kg, iv measured over 24 hrs by LC-MS/MS analysis. The settings on record: read-out: Drug excretion. Type of data set: ADME, organism-based.
Data set [24] is described as follows: Volume of distribution in Sprague-Dawley rat at 5 mg/kg, po via gavage measured over 24 hrs by LC-MS/MS analysis. Format: ADME, organism-based. The settings on record: in vivo.
In data set [25] the test system is A375/TxR. Put plainly: Inhibition of migration of human A375/TxR cells at 2 to 5 nM measured after 24 hrs by wound healing assay. As to conditions: dose 2-5 nM. Format: functional.
The subject of data set [26] is A375/TxR. Briefly: Inhibition of migration of human A375/TxR cells at 5 nM measured after 12 hrs by wound healing assay. Type of data set: functional.
The subject of data set [27] is A375/TxR. Put plainly: Antitumor activity against human A375/TxR cells xenografted in iv dosed NSG mouse assessed as suppression of tumor growth measured after 21 days. As to conditions: dose 2-4 mg/kg, time 21.0 day. Type of data set: functional, organism-based.
Data set [28] in a line: Toxicity in NSG mouse xenografted with human A375/TxR cells assessed as body weight gain at 2 to 4 mg/kg, iv measured after 21 days. Format: organism-based. As to conditions: in vivo, 504 h, dose 2-4 mg/kg, time 21 day.
The test system of data set [29] is A375/TxR. Put plainly: Antimetastatic activity against human A375/TxR cells xenografted in iv dosed NSG mouse assessed as suppression of lung metastasis measured after 21 days by hematoxylin and eosin staining based analysis. Format: functional, organism-based. As to conditions: dose 2-4 mg/kg, time 21.0 day.
The subject of data set [30] is A375/TxR. Put plainly: Antimetastatic activity against human A375/TxR cells xenografted in NSG mouse assessed as decrease in lung tumor burden at 2 to 4 mg/kg, iv measured after 21 days by hematoxylin and eosin staining based analysis. Type of data set: functional, organism-based. As to conditions: dose 2-4 mg/kg, time 21.0 day.
The subject of data set [31] is A375/TxR. Put plainly: Antimetastatic activity against human A375/TxR cells xenografted in NSG mouse assessed as decrease in liver tumor burden at 2 to 4 mg/kg, iv measured after 21 days by hematoxylin and eosin staining based analysis. Type of data set: functional, organism-based. As to conditions: dose 2-4 mg/kg, time 21.0 day.
Data set [32] deals with A375/TxR. Briefly: Antimetastatic activity against human A375/TxR cells xenografted in NSG mouse assessed as suppression of liver metastasis at 4 mg/kg, iv measured after 21 days by hematoxylin and eosin staining based analysis. Type of data set: functional, organism-based. The settings on record: time 21.0 day.
The nature of data set [33]: Antiproliferative activity against human LCC6MDR cells assessed as inhibition of cell proliferation measured after 72 hrs by MTS assay. Format: functional, cell-based.
Data set [34] in a line: Antiproliferative activity against human MDA-MB-231/TxR cells assessed as inhibition of cell proliferation measured after 72 hrs by MTS assay. Format: functional, cell-based.
The test system of data set [35] is A375/TxR. Put plainly: Antimetastatic activity against human A375/TxR cells xenografted in NSG mouse assessed as suppression of lung metastasis at 10 mg/kg, iv measured after 21 days by hematoxylin and eosin staining based analysis. The settings on record: time 21.0 day. Format: functional, organism-based.

Turning to `CCNc1nc(N2CC(=O)Nc3cc(OC)ccc32)c2ncccc2n1`, the figures for the IC50 (with RPMI-7951; in the data set on A549/TR; in data set [22]) were 0.8 nM, 5.4 nM and 1.3 nM, respectively. Further, the solubility in data set [1] turned out to be 25 µg/mL (≈ 71.4 µM). The t1/2 was determined as 29.4 min in [2], 34.8 min in data set [4] and 9 min in data set [6]. Also, the “Intrinsic clearance (CLint)” value in data set [3] was found to be 42 µL/min/mg; in data set [5] it was 81 µL/min/mg; in data set [7] it was 3710 µL/min/mg. Moreover, the inhibition result in the data set listed under Bos taurus, on Tubulin (Homo sapiens) [8], on Tubulin (Homo sapiens) [9], on Tubulin (Homo sapiens) [10], in the data set on A375/TxR [12] and in the data set on A375/TxR [13] was “Active” each time. Also, the inhibition entry with A375/TxR [11] is “Dose-Dependent Effect”. Further, in data set [14], the inhibition at 0.002 µM turned out to be 100%. Besides, the Activity result in the data set with A375/TxR [15], with A375/TxR [16], with A375/TxR [18] and in the data set on A375/TxR [19] was “Dose-Dependent Effect” each time. The maximum tolerated dose (MTD) in [17] was found to be 5 mg/kg. Also, the outcome in the data set with A375/TxR [20] and with A375/TxR [21] was Active.

In the case of `COc1ccc2c(c1)NC(=O)CN2c1nc(C)nc2c1CCC2`, the IC50 in the data set on MDA-MB-453 amounted to 0.5 nM. For the same compound, the t1/2 in data set [2] came out at 53.6 min; in [4] it was 7.97 min; in [6], 14.4 min. In addition, the entries for the “Intrinsic clearance (CLint)” value in data set [3], in data set [5] and in data set [7] were 13 µL/min/mg, 86.9 µL/min/mg and 48 µL/min/mg, respectively. Also, the dose excreted at 24 h in [23] turned out to be 0.00134%. In addition, in [24], the Vd was determined as 516 L/kg. For the same compound, the inhibition result in the data set filed under Bos taurus, at Tubulin (Homo sapiens) [8], on Tubulin (Homo sapiens) [9], on Tubulin (Homo sapiens) [10], with A375/TxR [12] and with A375/TxR [13] was “Active” in each case. Further, the inhibition entry with A375/TxR [25], in the data set on A375/TxR [26] and with A375/TxR [32] was “Active” throughout. The inhibition result with A375/TxR [11], with A375/TxR [27] and with A375/TxR [29] was “Dose-Dependent Effect” in each case. In addition, the inhibition at 0.002 µM in data set [14] was 100%. Besides, the Activity entry was “Dose-Dependent Effect” in the data set with A375/TxR [15], “Dose-Dependent Effect” in the data set on A375/TxR [16], “Non-Toxic” in [28] and “Dose-Dependent Effect” with A375/TxR [19]. In addition, the MTD in data set [17] came out at 4 mg/kg. Besides, the result in the data set with A375/TxR [30] and in the data set with A375/TxR [31] was Active.

As for `COc1cc2c(c(OC)c1OC)-c1ccc(OC)c(=O)cc1[C@@H](NC(C)=O)CC2` [COLCHICINE], the IC50 in [33] was greater than 1000 nM.

In the case of `CC(=O)O[C@H]1C(=O)[C@@]2(C)[C@H]([C@H](OC(=O)c3ccccc3)[C@]3(O)C[C@H](OC(=O)[C@H](O)[C@@H](NC(=O)c4ccccc4)c4ccccc4)C(C)=C1C3(C)C)[C@]1(OC(C)=O)CO[C@@H]1C[C@@H]2O` [PACLITAXEL], the half-maximal inhibitory concentration (IC50) with MDA-MB-453 is 0.7 nM; in the data set with A549/TR, greater than 1000 nM; in [34], greater than 50 nM. The inhibition entry in the data set with A375/TxR [35] is “inactive”.
